Laboratory results from the NIST ThermoML archive (doi:10.1021/acs.jced.6b00563).
± gives the expanded uncertainty stated by the source.

Key:
[1] = refractive index (Na D-line) (dimensionless); details: 100 kPa, Liquid, Standard Abbe refractometry
[2] = 100 kPa, Liquid; for viscosity: Falling or rolling sphere viscometry; for speed of sound: Sing-around technique in a fixed-path interferometer; for mass density: Vibrating tube method
[3] = an = ratio of the nth substance listed; details: 100 kPa, Liquid, a1 = 2; for viscosity: Falling or rolling sphere viscometry; for speed of sound: Sing-around technique in a fixed-path interferometer; for mass density: Vibrating tube method
[4] = refractive index (Na D-line) (dimensionless); an = ratio of the nth substance listed; details: 100 kPa, Liquid, Standard Abbe refractometry, a1 = 2

CCCCO [butan-1-ol]
Details | mass density, [2] [kg/m3] | refractive index, [1] | speed of sound, [2] [m/s] | viscosity, [2] [mPa·s]
298.15 K | 805.75 ± 0.81 | 1.39697 ± 0.00031 | 1240 ± 2 | 2.568 ± 0.032
308.15 K | 798.06 ± 0.81 | 1.39281 ± 0.00031 | 1206 ± 2 | 1.998 ± 0.025
318.15 K | 790.22 ± 0.8 | 1.38857 ± 0.00031 | 1173 ± 2 | 1.578 ± 0.019

CC(=O)CCC(=O)O [4-oxopentanoic acid] + C[N+](C)(C)CCO.[Cl-]
Details | mass density, [3] [kg/m3] | refractive index, [4] | speed of sound, [3] [m/s] | viscosity, [3] [mPa·s]
293.15 K | 1141.05 ± 1.2 | 1.46987 ± 0.00034 | 1764 ± 2 | 365.3 ± 24
298.15 K | 1137.7 ± 1.2 | 1.46867 ± 0.00034 | 1749 ± 2 | 255.8 ± 14
303.15 K | 1134.34 ± 1.1 | 1.4673 ± 0.00034 | 1734 ± 2 | 185.5 ± 8.2
308.15 K | 1130.99 ± 1.1 | 1.46595 ± 0.00034 | 1720 ± 2 | 136.5 ± 4.6
313.15 K | 1127.63 ± 1.1 | 1.46457 ± 0.00034 | 1707 ± 2 | 103.7 ± 2.6
318.15 K | 1124.3 ± 1.1 | 1.4632 ± 0.00034 | 1693 ± 2 | 81.5 ± 1.5
323.15 K | 1120.98 ± 1.1 | 1.4618 ± 0.00034 | 1680 ± 2 | 64.8 ± 0.9
328.15 K | 1117.68 ± 1.1 | 1.46041 ± 0.00034 | 1667 ± 2 | 51.7 ± 0.6
333.15 K | 1114.69 ± 1.1 | 1.45902 ± 0.00034 | 1654 ± 2 | 43 ± 0.6
338.15 K | 1111.41 ± 1.1 | 1.45761 ± 0.00034 | 1641 ± 2 | 34.1 ± 0.4
343.15 K | 1108.1 ± 1.1 | 1.45623 ± 0.00034 | 1628 ± 2 | 28.6 ± 0.4

CCCCCO [pentan-1-ol]
Details | mass density, [2] [kg/m3] | refractive index, [1] | speed of sound, [2] [m/s] | viscosity, [2] [mPa·s]
298.15 K | 810.88 ± 0.82 | 1.40752 ± 0.00033 | 1276 ± 2 | 3.502 ± 0.044
308.15 K | 803.5 ± 0.82 | 1.40352 ± 0.00033 | 1242 ± 2 | 2.662 ± 0.034
318.15 K | 795.98 ± 0.81 | 1.39942 ± 0.00033 | 1209 ± 2 | 2.061 ± 0.026

CCCO [propan-1-ol]
Details | mass density, [2] [kg/m3] | refractive index, [1] | speed of sound, [2] [m/s] | viscosity, [2] [mPa·s]
298.15 K | 799.69 ± 0.81 | 1.38275 ± 0.00032 | 1209 ± 2 | 1.943 ± 0.024
308.15 K | 792.76 ± 0.8 | 1.37857 ± 0.00032 | 1175 ± 2 | 1.549 ± 0.019
318.15 K | 784.45 ± 0.79 | 1.37421 ± 0.00032 | 1141 ± 2 | 1.252 ± 0.016

CCO [ethanol]
Details | mass density, [2] [kg/m3] | refractive index, [1] | speed of sound, [2] [m/s] | viscosity, [2] [mPa·s]
298.15 K | 785.06 ± 0.79 | 1.35905 ± 0.00031 | 1143 ± 2 | 1.083 ± 0.013
308.15 K | 776.4 ± 0.78 | 1.35501 ± 0.00031 | 1109 ± 2 | 0.901 ± 0.011
318.15 K | 767.6 ± 0.78 | 1.35083 ± 0.00031 | 1075 ± 2 | 0.758 ± 0.009
